Test results: patent US12053442B2, “Methods and compositions for neuroprotection” (The Feinstein Institutes for Medical Research, priority 2020, dated 2024)

What was measured:
[1] = ESI-MS evaluation of active cocktail components (stability, molecular interaction); type: physicochemical; details: ESI-MS after ethyl acetate extraction (FIG. 6)
Protocol: Then the molecular mass of the extracted components was analyzed by electrospray ionization mass spectrometry (ESI-MS) (FIG. 6). […] Then the preparation was centrifuged at 10 000 g for 2 min at room temperature. The top layer (ethyl acetate) was then separated and transferred to a new vial. Another […] ethyl acetate was added into the bottom layer, and the extraction was repeated. The combined organic phase was dried with nitrogen gas. The residue was reconstituted in 500 μL methanol, vortexed for 10 s, and centrifuged at 13 000 g for 2 min. The final extract was transferred into a polypropylene vial. Then 30 μL of the final extract was injected and analyzed on a LTQ XL™ Linear Ion Trap Mass Spectrometer (Thermo Fisher Scientific, Waltham, MA), and the data was analyzed using Xcalibur 3.1 (Thermo Fisher Scientific, Waltham, MA).

[2] = Solubility in water during cocktail formulation; type: physicochemical; details: formulation NWH-1
control and CA rats = experiment: Cocktail development trials to assess survival benefit (Table 9); type: in vivo, rat; details: reason for removal from the cocktail
Protocol: Our goal was to provide the most benefit with the least number of agents in a single concoction. […] This information can aid in selecting agents that can be appropriately and practically combined. […] Each drug, individually and in various combinations, was administered to normal rats (n=3) to determine any potential adverse effects, such as immediate death.

Row | Structure (SMILES) | Stability of drug in the final cocktail formulation by mass spectra [1] | other results
1 | COC1=C(OC)C(=O)C(C/C=C(\C)CC/C=C(\C)CC/C=C(\C)CC/C=C(\C)CC/C=C(\C)CC/C=C(\C)CC/C=C(\C)CC/C=C(\C)CC/C=C(\C)CCC=C(C)C)=C(C)C1=O [CoQ10, Coenzyme Q10] | – | Solubility in water [2]: insoluble in
2 | C/C(=C(\CCOC(=O)C(C)C)SS/C(CCOC(=O)C(C)C)=C(/C)N(C=O)Cc1cnc(C)nc1N)N(C=O)Cc1cnc(C)nc1N [sulbutiamine, Sulbutiamine] | – | Solubility in water [2]: insoluble in
3 | N=C(N)NC(=O)c1cnn(-c2cccc3ncccc23)c1C1CC1 [zoniporide, Zoniporide] | intact and stable | –
4 | Nc1ncnc2c1ncn2[C@@H]1O[C@H](COP(=O)([O-])OP(=O)(O)OP(=O)(O)O)[C@@H](O)[C@H]1O.[Cl-].[Mg+2] [ATP-magnesium chloride, adenosine triphosphate-magnesium chloride] | – | Adverse effect seen in preliminary trials (control and CA rats): hypotensive effect
5 | CC1=NN(c2ccccc2)C(=O)C1 [edaravone, Edaravone] | intact and stable | –

The next lines start with results.

Row | Stability of drug in the final cocktail formulation by mass spectra [1] | Structure (SMILES) | other results
6 | intact and stable | CN(C)C(=N)N=C(N)N [metformin, Metformin] | –
7 | intact and stable | CC(=O)N[C@@H](CS)C(=O)O [N-acetyl cysteine] | –
8 | intact and stable | O=C1O[C@H]([C@@H](O)CO)C(O)=C1O [vitamin C, ascorbic acid] | –
